Experimental data taken from patent US12478617B2, “Lipidated peptide inhibitors of interleukin-23 receptor” (JANSSEN BIOTECH, INC., priority 2021, dated 2025).
Where two headings read alike, the source gives them in different places. Starred links: 1 amine or outer side, 2 acyl side, 3 side chain; linkers in the order of their positions; H or OH if unused. Positions of bridges follow the written chain, without caps; N, C: chain ends. Non-standard residues stand in square brackets, D forms with d. Residues, ends and D or L forms follow the SMILES beside them. Groups on a side chain read outwards from the residue. *: point of attachment. X6 = C[N+](C)(CCNC(=O)CCCCCCCCCCCCCCCCC(=O)O)CC(=O)*; Trp(7-Me) = Cc1cccc2c(C[C@H](N)C(=O)O)c[nH]c12; C20 diacid = O=C(O)CCCCCCCCCCCCCCCCCCC(=O)*; C18 diacid = O=C(O)CCCCCCCCCCCCCCCCC(=O)*; C16 diacid = O=C(O)CCCCCCCCCCCCCCC(=O)*; γGlu = O=C(O)[C@H](CCC(=O)[*:2])N[*:1]; 2Nal = N[C@@H](Cc1ccc2ccccc2c1)C(=O)O; AEF = NCCOc1ccc(C[C@H](N)C(=O)O)cc1; PEG6 = NCCOCCOCCOCCOCCOCCOCCC(=O)O; Palmitoyl = CCCCCCCCCCCCCCCC(=O)*; Trx = NC[C@H]1CC[C@H](C(=O)O)CC1; 3Pal = N[C@@H](Cc1cccnc1)C(=O)O; NMeK = CN[C@@H](CCCCN)C(=O)O; Pen = CC(C)(S)[C@H](N)C(=O)O; Thp = NC1(C(=O)O)CCOCC1; AEEA = NCCOCCOCC(=O)O; Sar = CNCC(=O)O

Tests used:
[1] = disulfide bond, 20-membered ring, I2/AcOH, ACN/H2O, […]
IL-23R = target: T1, IL-23R (Homo sapiens, UniProt Q5VWK5); test: IL23R Reporter Assay; type: cell-based
T1 construct: HEK293 cells containing IL-23R, IL-12RP31 and a firefly luciferase reporter gene driven by a STAT-inducible promoter (Promega); host or cells: HEK293
T1 sequence (Q5VWK5 24-629): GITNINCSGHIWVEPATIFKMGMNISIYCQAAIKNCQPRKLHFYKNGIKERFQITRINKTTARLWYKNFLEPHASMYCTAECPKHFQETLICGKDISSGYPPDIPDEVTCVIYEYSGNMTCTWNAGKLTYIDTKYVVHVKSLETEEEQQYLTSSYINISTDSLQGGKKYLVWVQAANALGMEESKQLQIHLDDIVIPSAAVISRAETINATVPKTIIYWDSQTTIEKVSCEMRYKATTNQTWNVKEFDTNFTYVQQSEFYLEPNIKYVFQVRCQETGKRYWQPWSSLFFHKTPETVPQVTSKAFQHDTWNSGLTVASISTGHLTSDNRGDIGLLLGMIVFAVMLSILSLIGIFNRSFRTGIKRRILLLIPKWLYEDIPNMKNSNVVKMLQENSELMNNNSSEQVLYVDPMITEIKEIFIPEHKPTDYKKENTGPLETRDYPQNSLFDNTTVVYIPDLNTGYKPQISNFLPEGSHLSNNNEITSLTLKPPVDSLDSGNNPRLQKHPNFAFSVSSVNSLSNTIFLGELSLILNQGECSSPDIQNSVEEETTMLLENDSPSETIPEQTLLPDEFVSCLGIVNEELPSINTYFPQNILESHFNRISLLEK
In short: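 Luminescence from BioGlo, read after cells were moved to 20 °C, followed a 5 h incubation at 37 °C, 5% CO2 with DMSO-diluted test compounds.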

| Compound | IC50 (IL-23R) | other results |
| --- | --- | --- |
| CC(=O)NCCCC[C@@H]1NC(=O)[C@H](Cc2c[nH]c3c(C)cccc23)NC(=O)[C@H]([C@@H](C)O)NC(=O)[C@H](CC(N)=O)NC(=O)[C@@H](NC(=O)[C@@H](CCCCNC(=O)COCCOCCNC(=O)COCCOCCNC(=O)CC[C@H](NC(=O)CCCCCCCCCCCCCCCCC(=O)O)C(=O)O)NC(C)=O)C(C)(C)SSC(C)(C)[C@@H](C(=O)N[C@@H](Cc2ccc(OCCN)cc2)C(=O)N[C@@H](Cc2ccc3ccccc3c2)C(=O)NC2(C(=O)N[C@@H](CCCCNC(C)=O)C(=O)N[C@@H](CC(N)=O)C(=O)N[C@@H](Cc3cccnc3)C(=O)N(C)CC(N)=O)CCOCC2)NC1=O | – | ring closure, yield after HPLC ([1]; from Ac-dLys(PEG2PEG2gEC18OH)-Pen-Asn-Thr-7MeTrp-Lys(Ac)-Pen-AEF-2Nal-THP-Lys(Ac)-Asn-3Pya-Sar-NH2): 28% |
| CC(=O)NCCCC[C@@H]1NC(=O)[C@H](Cc2c[nH]c3c(C)cccc23)NC(=O)[C@H]([C@@H](C)O)NC(=O)[C@H](CC(N)=O)NC(=O)[C@@H](NC(=O)[C@@H](CCCCNC(=O)COCCOCCNC(=O)COCCOCCNC(=O)CC[C@H](NC(=O)CCCCCCCCCOc2cccc(C(=O)O)c2)C(=O)O)NC(C)=O)C(C)(C)SSC(C)(C)[C@@H](C(=O)N[C@@H](Cc2ccc(OCCN)cc2)C(=O)N[C@@H](Cc2ccc3ccccc3c2)C(=O)NC2(C(=O)N[C@@H](CCCCNC(=O)COCCOCCNC(=O)COCCOCCNC(=O)CC[C@H](NC(=O)CCCCCCCCCOc3cccc(C(=O)O)c3)C(=O)O)C(=O)N[C@@H](CC(N)=O)C(=O)N[C@@H](Cc3cccnc3)C(=O)N(C)CC(N)=O)CCOCC2)NC1=O | – | ring closure, yield after HPLC ([1]; from Ac-dLys(PEG2PEG2gEmXOH)-Pen-Asn-Thr-7MeTrp-Lys(Ac)-Pen-AEF-2Nal-THP-Lys(PEG2PEG2gEmXOH)-Asn-3Pya-Sar-NH2): 13% |
| CC(=O)NCCCC[C@@H]1NC(=O)[C@H](Cc2c[nH]c3c(C)cccc23)NC(=O)[C@H]([C@@H](C)O)NC(=O)[C@H](CC(N)=O)NC(=O)[C@@H](NC(=O)[C@@H](CCCNC(=N)N)NC(C)=O)C(C)(C)SSC(C)(C)[C@@H](C(=O)N[C@@H](Cc2ccc(OCCN)cc2)C(=O)N[C@@H](Cc2ccc3ccccc3c2)C(=O)NC2(C(=O)N[C@@H](CCCCNC(C)=O)C(=O)N[C@@H](CC(N)=O)C(=O)N[C@@H](Cc3cccnc3)C(=O)N(CCOCCOCCNC(=O)COCCOCCNC(=O)CC[C@H](NC(=O)CCCCCCCCCCCCCCCCC(=O)O)C(=O)O)CC(N)=O)CCOCC2)NC1=O | – | ring closure, yield after HPLC ([1]; from Ac-dArg-Pen-Asn-Thr-7MeTrp-Lys(Ac)-Pen-AEF-2Nal-THP-Lys(Ac)-Asn-3Pya-N(PEG2PEG2gEC18OH)Gly-NH2): 19.6% |
| CC(=O)NCCCC[C@@H]1NC(=O)[C@H](Cc2c[nH]c3c(C)cccc23)NC(=O)[C@H]([C@@H](C)O)NC(=O)[C@H](CC(N)=O)NC(=O)[C@@H](NC(=O)[C@@H](CCCCNC(=O)CCOCCOCCOCCOCCOCCOCCNC(=O)CC[C@H](NC(=O)CCCCCCCCCCCCCCCCC(=O)O)C(=O)O)NC(C)=O)C(C)(C)SSC(C)(C)[C@@H](C(=O)N[C@@H](Cc2ccc(OCCN)cc2)C(=O)N[C@@H](Cc2ccc3ccccc3c2)C(=O)NC2(C(=O)N[C@@H](CCCCNC(C)=O)C(=O)N[C@@H](CC(N)=O)C(=O)N[C@@H](Cc3cccnc3)C(=O)N(C)CC(N)=O)CCOCC2)NC1=O [Example 60, MeCO-k(PEG6 gE C18OH)-Pen*-N-T-7MeW-K(Ac)-Pen*-AEF-2Nal-THP-K(Ac)-N-3Pya-Sar-CONH2] (Ac-[dK]([PEG6-γGlu-C18 diacid])[Pen]NT[Trp(7-Me)]K(Ac)[Pen][AEF][2Nal][Thp]K(Ac)N[3Pal][Sar]-NH2; disulfide 2-7) | 0.042 nM | – |
| CC(=O)NCCCC[C@@H]1NC(=O)[C@H](Cc2c[nH]c3c(C)cccc23)NC(=O)[C@H]([C@@H](C)O)NC(=O)[C@H](CC(N)=O)NC(=O)[C@@H](NC(=O)[C@@H](CCCNC(=N)N)NC(C)=O)C(C)(C)SSC(C)(C)[C@@H](C(=O)N[C@@H](Cc2ccc(OCCN)cc2)C(=O)N[C@@H](Cc2ccc3ccccc3c2)C(=O)NC2(C(=O)N[C@@H](CCCCNC(C)=O)C(=O)N[C@@H](CC(N)=O)C(=O)N[C@@H](Cc3cccnc3)C(=O)N(C)[C@@H](CCCCNC(=O)COCCOCCNC(=O)COCCOCCNC(=O)CC[C@H](NC(=O)CCCCCCCCCCCCCCCCC(=O)O)C(=O)O)C(N)=O)CCOCC2)NC1=O [Example 54, MeCO-r-Pen*-N-T-7MeW-K(Ac)-Pen*-AEF-2Nal-THP-K(Ac)-N-3Pya-NMeK(PEG2PEG2gEC18OH)-CONH2] (Ac-[dR][Pen]NT[Trp(7-Me)]K(Ac)[Pen][AEF][2Nal][Thp]K(Ac)N[3Pal][NMeK]([AEEA-AEEA-γGlu-C18 diacid])-NH2; disulfide 2-7) | 0.13 nM | – |
| CC(=O)NCCCC[C@@H]1NC(=O)[C@H](Cc2c[nH]c3c(C)cccc23)NC(=O)[C@H]([C@@H](C)O)NC(=O)[C@H](CC(N)=O)NC(=O)[C@@H](NC(C)=O)C(C)(C)SSC(C)(C)[C@@H](C(=O)N[C@@H](Cc2ccc(OCCN)cc2)C(=O)N[C@@H](Cc2ccc3ccccc3c2)C(=O)NC2(C(=O)N[C@@H](CCCCNC(=O)COCCOCCNC(=O)COCCOCCNC(=O)CC[C@H](NC(=O)[C@H]3CC[C@H](CNC(=O)CCCCCCCCCCCCCCCCCCC(=O)O)CC3)C(=O)O)C(=O)N[C@@H](CC(N)=O)C(=O)N[C@@H](Cc3cccnc3)C(=O)N(C)CC(N)=O)CCOCC2)NC1=O [Example 128, MeCO-Pen*-N-T-7MeW-K(Ac)-Pen*-AEF-2Nal-THP-K(PEG2PEG2gETrxC20OH)-N-3Pya-Sar-CONH2] (Ac-[Pen]NT[Trp(7-Me)]K(Ac)[Pen][AEF][2Nal][Thp]K([AEEA-AEEA-γGlu-Trx-C20 diacid])N[3Pal][Sar]-NH2; disulfide 1-6) | 0.1 nM | – |
| MeCO-r-Pen(3)-N15-T-7MeW-K(Ac)-Pen(3)-AEF-2Nal-THP-E-N15-3Pya-Sar-K(PEG2PEG2gEC18OH)-CONH2 [Compound 354] | – | IC50 (IL-23R; IL23R reporter assay, HEK293 cells with IL-23R and STAT-inducible luciferase reporter, 10 ng/mL IL-23, 5 h, Table 5b 'IL-23 Binding Data'): 1280 nM |
| CCCCCCCCCCCCCCCC(=O)N[C@@H](CCC(=O)NCCOCCOCC(=O)NCCOCCOCC(=O)NCCCC[C@@H]1NC(=O)[C@@H](NC(C)=O)C(C)(C)SSC(C)(C)[C@@H](C(=O)N[C@@H](Cc2ccc(OCCN)cc2)C(=O)N[C@@H](Cc2ccc3ccccc3c2)C(=O)NC2(C(=O)N[C@@H](CCCCNC(C)=O)C(=O)N[C@@H](CC(N)=O)C(=O)N[C@@H](Cc3cccnc3)C(=O)N(C)CC(N)=O)CCOCC2)NC(=O)[C@H](CCCCNC(C)=O)NC(=O)[C@H](Cc2c[nH]c3c(C)cccc23)NC(=O)[C@H]([C@@H](C)O)NC1=O)C(=O)O [Example 83, MeCO-Pen*-K(PEG2PEG2gEC16)-T-7MeW-K(Ac)-Pen*-AEF-2Nal-THP-K(Ac)-N-3Pya-Sar-CONH2] (Ac-[Pen]K([AEEA-AEEA-γGlu-Palmitoyl])T[Trp(7-Me)]K(Ac)[Pen][AEF][2Nal][Thp]K(Ac)N[3Pal][Sar]-NH2; disulfide 1-6) | 0.052 nM | – |
| CC(=O)NCCCC[C@@H]1NC(=O)[C@H](Cc2c[nH]c3c(C)cccc23)NC(=O)[C@H]([C@@H](C)O)NC(=O)[C@H](CC(N)=O)NC(=O)[C@@H](NC(C)=O)C(C)(C)SSC(C)(C)[C@@H](C(=O)N[C@@H](Cc2ccc(OCCN)cc2)C(=O)N[C@@H](Cc2ccc3ccccc3c2)C(=O)NC2(C(=O)N[C@@H](CCCCNC(=O)CC[C@H](NC(=O)CCCCCCCCCCCCCCC(=O)O)C(=O)O)C(=O)N[C@@H](CC(N)=O)C(=O)N[C@@H](Cc3cccnc3)C(=O)N(C)CC(N)=O)CCOCC2)NC1=O [Example 29, MeCO-Pen*-N-T-7MeW-K(Ac)-Pen*-AEF-2Nal-THP-K(gEC16OH)-N-3Pya-Sar-CONH2] (Ac-[Pen]NT[Trp(7-Me)]K(Ac)[Pen][AEF][2Nal][Thp]K([γGlu-C16 diacid])N[3Pal][Sar]-NH2; disulfide 1-6) | 0.06 nM | – |
| CC(=O)NCCCC[C@@H]1NC(=O)[C@H](Cc2c[nH]c3c(C)cccc23)NC(=O)[C@H]([C@@H](C)O)NC(=O)[C@H](CC(N)=O)NC(=O)[C@@H](NC(C)=O)C(C)(C)SSC(C)(C)[C@@H](C(=O)N[C@@H](Cc2ccc(OCCN)cc2)C(=O)N[C@@H](Cc2ccc3ccccc3c2)C(=O)NC2(C(=O)N[C@@H](CCCCNC(=O)COCCOCCNC(=O)COCCOCCNC(=O)CC[C@H](NC(=O)C[N+](C)(C)CCNC(=O)CCCCCCCCCCCCCCCCC(=O)O)C(=O)O)C(=O)N[C@@H](CC(N)=O)C(=O)N[C@@H](Cc3cccnc3)C(=O)N(C)CC(N)=O)CCOCC2)NC1=O [Example 123, MeCO-Pen*-N-T-7MeW-K(Ac)-Pen*-AEF-2Nal-THP-K(PEG2PEG2 gE SP6 C18OH)-N-3Pya-Sar-CONH2] (Ac-[Pen]NT[Trp(7-Me)]K(Ac)[Pen][AEF][2Nal][Thp]K([AEEA-AEEA-γGlu-X6])N[3Pal][Sar]-NH2; disulfide 1-6) | 0.073 nM | – |
